Measurements from PubChem BioAssay (NCI).
Several values for one entry are separate records, joined by “and”; a condition that tells them apart may be missing. Equal values may be shown once.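 Each compound was tested at five concentrations against cells in 96-well plates for 48 hours. GI50: concentration for 50% inhibition of growth. Definition used: TGI = concentration required for complete inhibition of growth.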

Tests used:
Assay in all cases: growth of human tumour cells (NCI), 48 h
[1] = test system: SF-268 CNS
[2] = test system: SF-539 CNS
[3] = test system: HOP-62 NSCLC
[4] = test system: CAKI-1 renal
[5] = test system: MALME-3M melanoma
[6] = test system: TK-10 renal
[7] = test system: HT29 colon
[8] = test system: HOP-92 NSCLC
[9] = test system: OVCAR-8 ovarian
[10] = test system: OVCAR-5 ovarian

Compound: O=c1oc(-c2ccc(O)c(O)c2)cc2cc(O)cc(O)c12
- GI50 [1]: 32.4 µM
- TGI [1]: > 100 µM
- GI50 [2]: 26.7 µM
- TGI [2]: 91.5 µM
- GI50 [3]: 33 µM
- TGI [3]: 90.4 µM
- GI50 [4]: 33.6 µM
- TGI [4]: > 100 µM
- GI50 [5]: 57.5 µM
- TGI [5]: > 100 µM
- GI50 [6]: 30.5 µM
- TGI [6]: > 100 µM
- GI50 [7]: 71.5 µM
- TGI [7]: > 100 µM
- GI50 [8]: 25.5 µM
- TGI [8]: > 100 µM
- GI50 [9]: 42.1 µM
- TGI [9]: > 100 µM
- GI50 [10]: 36.7 µM
- TGI [10]: > 100 µM

Compound: c1ccc2c(c1)nc(NCCN1CCNCC1)c1c3ccccc3[nH]c21
- GI50 [1]: 0.39 µM
- TGI [1]: 2.01 µM
- GI50 [2]: 0.616 µM
- TGI [2]: 2.2 µM
- GI50 [3]: 0.404 µM
- TGI [3]: 2.2 µM
- GI50 [4]: 0.454 µM
- TGI [4]: 2.81 µM
- GI50 [5]: 1.79 µM
- TGI [5]: 3.82 µM
- GI50 [6]: 1.34 µM
- TGI [6]: 6.91 µM
- GI50 [7]: 0.167 µM
- TGI [7]: 1.53 µM
- GI50 [8]: 0.43 µM
- TGI [8]: 2.62 µM
- GI50 [9]: 0.111 µM
- TGI [9]: 0.883 µM
- GI50 [10]: 0.477 µM
- TGI [10]: 3.15 µM

Compound: C[C@@H](NC(=O)Cc1cc(F)cc(F)c1)C(=O)N[C@@]1(C)N=C(c2ccccc2)c2ccccc2N(C)C1=O
- GI50 [1]: 30.9 µM
- TGI [1]: > 100 µM
- GI50 [2]: > 56 µM
- TGI [2]: > 100 µM
- GI50 [3]: 64.7 µM
- TGI [3]: > 100 µM
- GI50 [4]: 11.7 µM
- TGI [4]: > 56.8 µM
- GI50 [5]: > 60.8 µM
- TGI [5]: > 100 µM
- GI50 [6]: 31.2 µM
- TGI [6]: > 88.8 µM
- GI50 [7]: 49.4 µM
- TGI [7]: > 100 µM
- GI50 [8]: 19.8 µM
- TGI [8]: > 67.7 µM
- GI50 [9]: 65.1 µM
- TGI [9]: > 100 µM
- GI50 [10]: > 83.5 µM
- TGI [10]: > 100 µM

Compound: CC1(CC(=O)O)OC2CCCCCC2O1 (centres undefined) (tested in a mixture with another compound)
- TGI [1]: > 100 µM
- TGI [2]: > 100 µM
- TGI [3]: > 100 µM
- TGI [4]: > 100 µM
- TGI [5]: > 100 µM
- TGI [6]: > 100 µM
- TGI [7]: > 100 µM
- TGI [8]: > 100 µM
- TGI [9]: > 100 µM
- TGI [10]: > 100 µM

Compound: NC(Cc1nn[nH]n1)C(=O)O (centres undefined)
- TGI [1]: > 100 µM
- TGI [2]: > 100 µM
- TGI [3]: > 100 µM
- TGI [4]: > 100 µM
- TGI [5]: > 100 µM
- TGI [6]: > 100 µM
- TGI [7]: > 100 µM
- TGI [8]: > 100 µM
- TGI [9]: > 100 µM
- TGI [10]: > 100 µM

Compound: O=c1c2ccccc2nc(-c2ccccc2)n1NCC1(O)OCC(O)C(O)C1O (centres undefined)
- TGI [1]: > 100 µM
- TGI [2]: > 100 µM
- TGI [3]: > 100 µM
- TGI [4]: > 100 µM
- TGI [5]: > 100 µM
- TGI [6]: > 100 µM
- TGI [7]: > 100 µM
- TGI [8]: > 100 µM
- TGI [9]: > 100 µM
- TGI [10]: > 100 µM

Compound: COC(=O)C(CC=O)C(=O)C(=O)Nc1cccc(C(F)(F)F)c1 (centres undefined)
- TGI [1]: > 100 µM
- TGI [2]: > 100 µM
- TGI [3]: > 100 µM
- TGI [4]: > 100 µM
- TGI [5]: > 100 µM
- TGI [6]: > 100 µM
- TGI [7]: > 100 µM
- TGI [8]: > 100 µM
- TGI [9]: > 100 µM
- TGI [10]: > 100 µM

Compound: C/C(=C(/c1ccc(O)cc1)c1ccc(OCCN2CCCC2)cc1)c1ccccc1
- GI50 [1]: 5.58 µM
- TGI [1]: 20.7 µM
- GI50 [2]: 1.81 µM
- TGI [2]: 3.76 µM
- GI50 [3]: 2.1 µM
- TGI [3]: 4.54 µM
- GI50 [4]: 3.02 µM
- TGI [4]: 13.9 µM
- GI50 [5]: 1.7 µM
- TGI [5]: 3.41 µM
- GI50 [6]: 4.61 µM
- TGI [6]: 16.4 µM
- GI50 [7]: 1.35 µM
- TGI [7]: 3.2 µM
- GI50 [8]: 2.24 µM
- TGI [8]: 7.34 µM
- GI50 [9]: 5.73 µM
- TGI [9]: 23.1 µM
- GI50 [10]: 7.99 µM
- TGI [10]: 22.5 µM

Compound: O=C1c2c(O)cccc2C(C(=O)CCCCC(=O)C2c3cccc(O)c3C(=O)c3c(O)cccc32)c2cccc(O)c21
- GI50 [1]: 2.25 µM
- TGI [1]: 2.39 µM and 6.86 µM
- GI50 [2]: 1.01 µM
- TGI [2]: 0.873 µM and 2.02 µM
- GI50 [3]: 1.05 µM
- TGI [3]: 1.66 µM and 2.52 µM
- GI50 [4]: 3.24 µM
- TGI [4]: 8.43 µM and 9.38 µM
- TGI [5]: 4.38 µM and 2.92 µM
- GI50 [6]: 2.85 µM
- TGI [6]: 3.65 µM and 8.35 µM
- GI50 [7]: 1.77 µM
- TGI [7]: 1.67 µM and 5.67 µM
- GI50 [8]: 1.3 µM
- TGI [8]: 1.69 µM and 2.8 µM
- GI50 [9]: 1.53 µM
- TGI [9]: 2.16 µM and 5.26 µM
- GI50 [10]: 0.961 µM
- TGI [10]: 1.22 µM and 1.85 µM

Compound: O=C1OC(c2ccc(O)cc2)(c2ccc(O)cc2)c2cccc3cccc1c23
- GI50 [1]: 14.2 µM
- TGI [1]: 32.2 µM
- GI50 [2]: 15.2 µM
- TGI [2]: 29 µM
- GI50 [3]: 17.3 µM
- TGI [3]: 38.1 µM
- GI50 [4]: 18.1 µM
- TGI [4]: 44.6 µM
- GI50 [5]: 20 µM
- TGI [5]: 43.4 µM
- GI50 [6]: 18 µM
- TGI [6]: 34 µM
- GI50 [7]: 19.4 µM
- TGI [7]: 39.6 µM
- GI50 [8]: 12.2 µM
- TGI [8]: 26.8 µM
- GI50 [9]: 16.7 µM
- TGI [9]: 44.1 µM
- GI50 [10]: 16.5 µM
- TGI [10]: 31.7 µM
